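These data come from cells grown in 96-well plates and exposed to compound for 48 hours at five concentrations. GI50: concentration for 50% inhibition of growth. TGI: total growth inhibition.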
Assays:
Experiment in all cases: NCI tumour cell line growth inhibition, 48 h
HCT-116 colon = tested on: HCT-116 colon
KM12 colon = tested on: KM12 colon
OVCAR-5 ovarian = tested on: OVCAR-5 ovarian
SK-MEL-2 melanoma = tested on: SK-MEL-2 melanoma
SK-MEL-28 melanoma = tested on: SK-MEL-28 melanoma
SK-MEL-5 melanoma = tested on: SK-MEL-5 melanoma
SK-OV-3 ovarian = tested on: SK-OV-3 ovarian
U251 CNS = tested on: U251 CNS
NCI-H460 lung = tested on: NCI-H460 lung
T-47D breast = tested on: T-47D breast

Row | SMILES | TGI (HCT-116 colon) [µM] | TGI (KM12 colon) [µM] | TGI (OVCAR-5 ovarian) [µM] | TGI (SK-MEL-2 melanoma) [µM] | TGI (SK-MEL-28 melanoma) [µM] | TGI (SK-MEL-5 melanoma) [µM] | TGI (SK-OV-3 ovarian) [µM] | TGI (U251 CNS) [µM] | TGI (NCI-H460 lung) [µM] | TGI (T-47D breast) [µM] | GI50 (HCT-116 colon) [µM] | GI50 (KM12 colon) [µM] | GI50 (NCI-H460 lung) [µM] | GI50 (SK-MEL-2 melanoma) [µM] | GI50 (SK-MEL-28 melanoma) [µM] | GI50 (SK-MEL-5 melanoma) [µM] | GI50 (SK-OV-3 ovarian) [µM] | GI50 (T-47D breast) [µM] | GI50 (U251 CNS) [µM] | GI50 (OVCAR-5 ovarian) [µM]
1 | Cc1c(/C=N/NS(=O)(=O)c2ccccc2)no[n+]1[O-] | > 100 | > 100 | > 100 | > 100 | > 100 | > 100 | > 100 | > 100 | – | – | – | – | – | – | – | – | – | – | – | –
2 | CCCC1c2c(ccc3ccccc23)Oc2ccc3ccccc3c21 | > 100 | > 100 | > 100 | 54.3 | > 100 | > 100 | > 100 | > 100 | > 100 | > 100 | – | – | – | – | – | – | – | – | – | –
3 | CCOP(=O)(OCC)C(NC(c1ccccc1)c1ccccc1)c1ccccc1 (configuration not stated) | 26 | 34.6 | – | 52.2 | > 100 | 33.3 | 52 | 28.5 | 41 | 99 | 13.2 | 18.4 | 17.2 | 22.3 | 41.1 | 19 | 24.3 | 42.6 | 14.5 | –
4 | CCOc1ccc(N=Cc2cccc3cccnc23)cc1 | > 100 | > 100 | > 100 | > 100 | > 100 | > 100 | > 100 | > 100 | > 100 | – | – | – | – | – | – | – | – | – | – | –
5 | CC(=O)O[C@H]1C(=O)[C@@]2(C)C(C(OC(=O)c3ccccc3)[C@]3(O)CC(OC(=O)[C@H](OC(=O)CCC(=O)O)C(NC(=O)c4ccccc4)c4ccccc4)C(C)=C1C3(C)C)C1(OC(C)=O)COC1C[C@@H]2OC(=O)CCC(=O)O (some centres not stated) | > 100 | > 100 | – | – | 86.9 | > 100 | > 100 | > 100 | – | > 100 | – | – | – | – | – | – | – | – | – | –
6 | CC(O)/C=C/C(CCC(C)CO)C(C)C (configuration not stated) | > 100 | > 100 | > 100 | > 100 | > 100 | > 100 | > 100 | > 100 | > 100 | – | – | – | – | – | – | – | – | – | – | –
7 | COc1ccc(C=C2C(=O)OC(C)(C)OC2=O)cc1OC | – | > 100 | > 100 | > 100 | > 100 | > 100 | > 100 | > 100 | > 100 | – | – | – | – | – | – | – | – | – | – | –
8 | CCCCCCCCCCCCCCCCCC(=O)OCC(CN(C)CCN(C)C)OC(=O)CCCCCCCCCCCCCCCCC (configuration not stated) | > 100 | > 100 | > 100 | > 100 | > 100 | > 100 | > 100 | > 100 | > 100 | – | – | – | – | – | – | – | – | – | – | –
9 | COc1ccc(/C=N/N=C(\N)NO)cc1OC | > 100 | > 100 | > 100 | > 100 | > 100 | 58.3 | > 100 | > 100 | > 100 | – | – | – | – | – | – | – | – | – | – | –
10 | O=S(=O)([O-])c1cccc2cccc(N=Cc3ccccc3[O-])c12.O=S(=O)([O-])c1cccc2cccc(N=Cc3ccccc3[O-])c12.[O]=[U]=[O] | > 100 | – | > 100 | > 100 | > 100 | – | > 100 | > 100 | > 100 | – | 22.3 | – | 55.6 | > 100 | > 100 | – | > 100 | – | 30.8 | > 100
11 | OCCCCC#Cc1ccccc1C#Cc1ccccc1 | 31.6 | – | 43.6 | > 100 | 41.6 | 28.6 | 26.7 | 23.8 | 62.6 | > 100 | 16.8 | – | 22.4 | 40 | 17 | 14.4 | 10.7 | 7.53 | 11.5 | 17.7
12 | O=C1C=C[C@@]23CC1C(O)C[C@H]2C=Cc1ccccc13 (some centres not stated) | > 100 | > 100 | > 100 | > 100 | – | > 100 | > 100 | – | > 100 | – | – | – | – | – | – | – | – | – | – | –
13 | C/C(O)=C(\N=O)C(=O)NCCc1ccccc1 | > 70.1 | > 100 | > 100 | > 100 | > 100 | > 100 | > 100 | > 100 | > 58.4 | – | – | – | – | – | – | – | – | – | – | –
14 | Cc1ccc(NC(=O)CC2C(=O)Nc3ccccc3S2=O)cc1C (configuration not stated) | > 100 | – | > 100 | > 100 | > 100 | > 100 | – | > 100 | > 100 | – | – | – | – | – | – | – | – | – | – | –
15 | Cc1cccc(C(C)(C)C)c1NC(=O)C(=O)C(C(=O)/C=C\c1ccccc1)C1OC(=O)c2ccccc21 (configuration not stated) | > 100 | > 100 | > 100 | – | > 100 | > 100 | > 100 | > 100 | > 100 | – | – | – | – | – | – | – | – | – | – | –
16 | Clc1ccc(-n2nnc(C3=NCCN3)c2-c2ccccc2)cc1 | > 100 | > 100 | > 100 | > 100 | > 100 | > 100 | > 100 | > 100 | > 100 | – | – | – | – | – | – | – | – | – | – | –
17 | Cc1ccccc1-c1c(N)nc(NC#N)nc1C(=O)Nc1ccccc1 | > 100 | > 100 | > 100 | > 100 | > 100 | > 100 | > 100 | > 100 | > 100 | – | – | – | – | – | – | – | – | – | – | –
18 | Cc1cn(C2CC(F)C(CO)O2)c(=O)[nH]c1=O (configuration not stated) | > 100 | > 100 | > 100 | > 100 | > 100 | > 100 | > 100 | – | > 100 | > 100 | > 100 | > 100 | 0.963 | > 100 | > 100 | > 100 | > 100 | > 100 | – | > 100
19 | [Cl][Bi]([O]c1ccccn1)[O]c1ccccn1 | > 100 | > 100 | > 100 | > 100 | > 100 | > 100 | > 100 | > 100 | – | – | > 100 | > 100 | – | > 100 | > 100 | 40.2 | > 100 | – | > 100 | > 100

Source: PubChem BioAssay (NCI)
